PubChem BioAssay (NCI)
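Interpolation was linear, between the two tested concentrations surrounding the appropriate level; five concentrations were tested over 48 hours in 96-well plates. TGI marks complete inhibition of growth.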

What was measured:
Assay in all cases: DTP human tumour cell line panel, 48 h
[1] = test system: MCF7 breast
[2] = test system: SK-OV-3 ovarian
[3] = test system: NCI-H23 lung
[4] = test system: NCI-H460 lung
[5] = test system: SR leukemia
[6] = test system: HCT-116 colon
[7] = test system: HL-60(TB) leukemia
[8] = test system: UACC-62 melanoma
[9] = test system: HCT-15 colon
[10] = test system: COLO 205 colon

Compound	TGI [1]	TGI [2]	TGI [3]	TGI [4]	TGI [5]	TGI [6]	TGI [7]	TGI [8]	TGI [9]	TGI [10]
O=[N+]([O-])c1ccc2nc3ccc([N+](=O)[O-])cn3c2c1	> 100 µM	> 100 µM	> 100 µM	> 100 µM	> 100 µM	> 100 µM	> 100 µM	> 100 µM	> 100 µM	> 100 µM
O=C1c2ccccc2S(=O)(=O)c2ccccc21	> 100 µM	> 100 µM	> 100 µM	> 100 µM		> 100 µM	> 100 µM	> 100 µM	> 100 µM	> 100 µM
CSc1c(C(C)=O)c(O)n(-c2ccc(Cl)cc2)c(=O)c1C#N	> 100 µM	> 100 µM	> 100 µM	> 100 µM	> 100 µM	> 100 µM	46.9 µM	> 100 µM	99.5 µM	65.6 µM
O=c1oc2ccccc2cc1-c1nc2ccc([N+](=O)[O-])cc2o1	> 100 µM	> 100 µM	> 100 µM	> 100 µM	> 100 µM	> 100 µM	> 100 µM	> 100 µM	> 100 µM	> 100 µM
[N-]=[N+]=NC1(c2ccccc2)C(=O)Nc2ccccc2C1=O (stereo not given)	> 100 µM	> 100 µM	> 100 µM	> 100 µM	> 100 µM	> 100 µM	> 100 µM	76.3 µM	> 100 µM	> 100 µM
COc1ccc(/C=N/Nc2[nH]c(=S)nc3[nH]ncc23)cc1	> 100 µM	> 100 µM	> 100 µM	> 100 µM	> 100 µM	> 100 µM	> 100 µM	> 100 µM	> 100 µM	47.9 µM
COc1ccc(CNc2nc(NCc3ccc(OC)cc3)nc(NC3CCCCC3)n2)cc1	0.533 µM	> 100 µM		7.78 µM	> 100 µM	11.7 µM	> 100 µM	9.41 µM	9.52 µM	5.35 µM
Oc1c2cccc1Cc1cccc3c1OCCOCCOCCOCCOc1c(cccc1Cc1cccc(c1O)C3)C2	> 100 µM	> 100 µM	> 100 µM		> 100 µM	> 100 µM		> 100 µM	> 100 µM	> 100 µM
O=C1c2ccccc2NC2C(O)c3ccccc3N12 (stereo not given)	> 100 µM	> 100 µM	84.3 µM	55.7 µM	> 100 µM	> 100 µM		56.8 µM	> 100 µM	> 100 µM
O=C1CSC2(CC(/C=C/C=C/c3ccccc3)=NN2c2cccc(S(=O)(=O)O)c2)N1c1nc2ccccc2s1 (stereo not given)	> 100 µM		> 100 µM	> 100 µM	60.1 µM	> 100 µM	> 100 µM	> 100 µM	> 100 µM	> 100 µM
Cc1cc(S(=O)(=O)Nc2n[nH]c(Nc3ccccc3)n2)c(S)cc1Cl	> 10 µM	> 10 µM	> 10 µM	> 10 µM		> 10 µM	> 10 µM	> 10 µM	> 10 µM	> 10 µM
NC(N)=N/N=C(\c1ccc(Cl)cc1)C1CC1	32.5 µM	78.7 µM	73.1 µM	29.9 µM	29.1 µM	31 µM		29.3 µM	40.2 µM	31 µM
COc1ccc(N2C(=O)C3c4[nH]c5ccc(C)cc5c4C4CCC(C(C)C)CC4C3C2=O)cc1 (stereo not given)	> 100 µM	> 100 µM	> 100 µM	> 100 µM	> 100 µM	> 100 µM		> 100 µM	> 100 µM	> 100 µM
CC(=O)Oc1ccc2cc(Oc3ccc(Cl)cc3)c(=O)oc2c1	> 100 µM		> 100 µM	> 100 µM	> 100 µM	> 100 µM	> 100 µM		> 100 µM	
c1ccc2c3c(ccc2c1)CSCc1ccc2ccccc2c1-3	> 100 µM		> 100 µM		> 100 µM	> 100 µM		> 100 µM	> 100 µM	> 100 µM
O=c1c(Cc2ccc(Cl)cc2)nnc2sc(-c3ccc([N+](=O)[O-])cc3)nn12	53 µM	> 100 µM	54.5 µM	44.1 µM	60.4 µM	48.8 µM	49.6 µM	34 µM	29.3 µM	
COc1ccccc1C(=O)c1c(N2CCCCC2)c(=O)c1=O	> 100 µM	> 100 µM	> 100 µM	> 100 µM		> 100 µM	> 100 µM	> 100 µM	> 100 µM	> 100 µM
CC1(C)CC(=O)C(/C=N/c2nc(-c3ccc(Br)cc3)cs2)=C(O)C1	> 100 µM	> 100 µM	83.9 µM	> 100 µM		> 100 µM	> 100 µM		49.7 µM	99.2 µM
CCCCCCCCCCCCC(=O)NCC(=O)NC(Cc1ccccc1)C(=O)Oc1ccc([N+](=O)[O-])cc1 (stereo not given)	> 100 µM		> 100 µM	> 100 µM	> 100 µM	> 100 µM	> 100 µM	> 100 µM	> 100 µM	31.9 µM
O=C(c1ccccc1F)c1c(NCc2ccccc2)c(=O)c1=O	> 100 µM	> 100 µM	> 100 µM	> 100 µM		> 100 µM	> 100 µM	> 100 µM	> 100 µM	> 100 µM
C=CCc1c(O)c2ccccc2[nH]c1=O	> 100 µM		> 100 µM	> 100 µM	> 100 µM	> 100 µM	> 100 µM		> 100 µM	> 100 µM
COc1cc(C2SCC(=O)N2NC(=O)c2ccc(NC(C)=O)cc2)cc(OC)c1OC (stereo not given)	> 100 µM	> 100 µM	> 100 µM	> 100 µM		> 100 µM	> 100 µM	> 100 µM	> 100 µM	> 100 µM
Cc1ccc(-c2cc(-c3ccc(Cl)cc3)nc(/N=C3\C(=O)N(CN4CCCCC4)c4ccc(Cl)cc43)n2)cc1	77.9 µM	> 100 µM	51.5 µM	> 100 µM		76.1 µM	62.4 µM	> 100 µM	> 100 µM	80.5 µM
